Data reported in paper PMC4538536, “In Silico-Based High-Throughput Screen for Discovery of Novel Combinations for Tuberculosis Treatment” (Antimicrobial Agents and Chemotherapy, 2015).
≈ marks a conversion by molar mass, not a printed value. Where two headings read alike, the source gives them in different places.

Experiments:
[1] = In vivo pharmacokinetics in infected mice (plasma, LC-MS/MS); design: species or system BALB/c mice; conditions: mouse; for AUC(0-t) / Cmax: po, steady state, infected mice
Description: The drugs were formulated in 0.5% hydroxypropyl methyl cellulose (HPMC)–0.1% Tween 80 suspensions as 3- or 4-drug combinations. Formulations were prepared by weighing and adding each compound to the bottle, according to the design. Formulation vehicle was added, and the suspension was stirred overnight. Only uniform suspensions were used, while those that precipitated were abandoned. Formulations were prepared every week, and compound stability was estimated at the end of the week. Pharmacokinetics (PK) analysis was performed on infected mice on the 20th day of dosing. Blood samples were collected from each mouse at 0.5, 2, 4, 6, and 24 h after compound administration. Blood samples of about 30 μl were collected from mice in all groups by serial sampling via the saphenous vein into Microvette CB300 tubes (Starstedt, Germany) coated with EDTA, and plasma (10 μl) was separated following centrifugation. Plasma samples were stored at –20°C until analysis using liquid chromatography-tandem mass spectrometry (LC-MS/MS).
A 1-mg/ml stock solution of each compound was prepared in dimethyl sulfoxide (DMSO) for all of the analytes except PZA and LZD, for which the stock solution was 10 mg/ml in DMSO, and RIF, for which the stock solution was prepared in 50% acetonitrile in water. Three different sets of calibration standard (CS) combinations were prepared by 2-fold dilution of the stock solutions. CS set 1 contained analytes CLO, BDQ, PA824, PZA, and SQ109, CS set 2 contained analytes BTZ043, MXF, THI, EMB, and PZA, and CS set 3 contained LZD, INH, RIF, and PZA. A 16-point calibration curve was utilized for all analytes, and the standard curves ranged from 0.0005 to 20 μg/ml except for PZA and LZD, for which the standard curve range was 0.006 to 200 μg/ml. Plasma samples were precipitated by adding chilled acetonitrile (1:10, vol/vol) containing carbamazepine as an internal standard (10 ng/ml). Samples were vortexed and then centrifuged at 4,000 rpm for 30 min at 10°C. The resulting supernatant was mixed with the mobile phase (50% acetonitrile in water with 0.1% formic acid). Five microliters of the sample was injected on to a liquid chromatographic system (Acquity ultraperformance liquid chromatography [UPLC] system, Waters, Milford, MA) coupled to a triple-quadrupole mass spectrometer (Xevo TQ-S; Waters, Milford, MA). Samples were separated on an LC column (ACE 3 C18, 50 by 4.6 mm, 3 μm particle size; Advanced Chromatography Technologies, Aberdeen, Scotland) by isocratic elution with 40 parts of 20 mM ammonium formate containing 0.1% (vol/vol) formic acid and 60 parts of acetonitrile at a flow rate of 0.5 ml/min with a run time of 4 min. Samples were acquired in positive ion mode and detected by multiple reaction monitoring (MRM). The concentrations of the analyte were determined from a standard curve obtained by plotting known concentrations of the analyte against peak area ratios (analyte/internal standard peak response).
PK analyses of the plasma concentration-time relationships were performed with Phoenix software (version 6.2; Pharsight, USA). A noncompartmental analysis program, model 200, was used to calculate PK parameters. The maximum concentration of drug in plasma (Cmax), time to Cmax (Tmax), elimination half-life (t1/2), and area under the concentration-time curve (AUC) from time zero to infinity (AUC0–∞) were estimated. AUC was computed using the trapezoidal rule (linear up and log down), and the AUC0–∞ was considered only when the extrapolated AUC was not more than 20% of the original value. A minimum of three sample points in the terminal slope were used to calculate half-life.

M. tuberculosis H37Rv [2] = experiment: In vitro bactericidal-effect analysis (CFU enumeration of checkerboard wells); type: cell-based, Mycobacterium tuberculosis; conditions: single drug at its MIC (FIC of 1); positive = reduction in CFU
Description: For determining the extent of the bactericidal effect, sample wells which remained blue in the resazurin microtiter assay (REMA) and whose ΣFICs were within the synergistic-to-additive range (<0.7 for doublets and <1.5 for triplets) were plated on Middlebrook 7H10 agar medium and incubated at 37°C for 21 to 28 days, following which bacterial colonies were enumerated to obtain the net reduction in CFU in comparison to the counts for the untreated controls at the start of drug testing, as well as to that achieved when M. tuberculosis was exposed to each drug alone.

M. tuberculosis H37Rv [3] = experiment: MIC determination, resazurin-based microplate assay; type: cell-based, Mycobacterium tuberculosis; conditions: Mycobacterium tuberculosis, single drug
[4] = tested individually; SQ109 at 25 mg/kg of body weight, EMB at 100-mg/kg dose; cited from earlier work

CC[C@@H](CO)NCCN[C@@H](CC)CO [Ethambutol] gave an AUC ([1]; BALB/c, plasma, oral, SQ109 25 mg/kg, EMB 100 mg/kg, in 3- and 4-drug combinations, read-out: observed AUC in combinations) of 4000 to 9900 ng·h/mL, an AUC(0-t) ([1]; BALB/c, plasma, 25 mg/kg, Group 5 triplet EMB 100/BDQ 25/SQ109 25 mg/kg oral, read-out: AUC0-24 in Triplet) of 4100 ± 1400 ng·h/mL and a Cmax ([1]; BALB/c, plasma, 25 mg/kg, Group 5 triplet EMB 100/BDQ 25/SQ109 25 mg/kg oral, read-out: Cmax in Triplet) of 1300 ± 600 ng/mL. The AUC(0-t) ([1]; BALB/c, plasma, 100 mg/kg, Group 8 triplet PA824 50/BDQ 25/EMB 100 mg/kg oral, read-out: AUC0-24 in Triplet) was 9900 ± 1600 ng·h/mL, the Cmax ([1]; BALB/c, plasma, 100 mg/kg, Group 8 triplet PA824 50/BDQ 25/EMB 100 mg/kg oral, read-out: Cmax in Triplet) was 2700 ± 200 ng/mL and the AUC(0-t) ([1]; BALB/c, plasma, 100 mg/kg, Ref. regimen triplet INH 30/RIF 10/EMB 100 mg/kg oral, read-out: AUC0-24 in Triplet) was 7900 ± 2800 ng·h/mL. For the same compound, the Cmax ([1]; BALB/c, plasma, 100 mg/kg, Ref. regimen triplet INH 30/RIF 10/EMB 100 mg/kg oral, read-out: Cmax in Triplet) was 2200 ± 500 ng/mL, the AUC(0-t) ([1]; BALB/c, plasma, 130 mg/kg, Group 9 triplet EMB 100/SQ109 25/LZD 130 mg/kg oral, read-out: AUC0-24 in Triplet) was 9600 ± 1600 ng·h/mL and the Cmax ([1]; BALB/c, plasma, 130 mg/kg, Group 9 triplet EMB 100/SQ109 25/LZD 130 mg/kg oral, read-out: Cmax in Triplet) was 1100 ± 200 ng/mL. For the same compound, the AUC(0-t) ([1]; BALB/c, plasma, 150 mg/kg, Group 5 quartet EMB 100/BDQ 25/SQ109 25/PZA 150 mg/kg oral, read-out: AUC0-24 in Quartet) was 4000 ± 1100 ng·h/mL, the Cmax ([1]; BALB/c, plasma, 150 mg/kg, Group 5 quartet EMB 100/BDQ 25/SQ109 25/PZA 150 mg/kg oral, read-out: Cmax in Quartet) was 1200 ± 500 ng/mL and the AUC(0-t) ([1]; BALB/c, plasma, 150 mg/kg, Group 8 quartet PA824 50/BDQ 25/EMB 100/PZA 150 mg/kg oral, read-out: AUC0-24 in Quartet) was 5700 ± 1100 ng·h/mL. For the same compound, the Cmax ([1]; BALB/c, plasma, 150 mg/kg, Group 8 quartet PA824 50/BDQ 25/EMB 100/PZA 150 mg/kg oral, read-out: Cmax in Quartet) was 1500 ± 300 ng/mL, the AUC(0-t) ([1]; BALB/c, plasma, 150 mg/kg, Ref. regimen quartet INH 30/RIF 10/EMB 100/PZA 150 mg/kg oral, read-out: AUC0-24 in Quartet) was 6600 ± 1800 ng·h/mL and the Cmax ([1]; BALB/c, plasma, 150 mg/kg, Ref. regimen quartet INH 30/RIF 10/EMB 100/PZA 150 mg/kg oral, read-out: Cmax in Quartet) was 1700 ± 600 ng/mL. For the same compound, the “plasma exposure in combination compared with individual (reported) exposure” value ([1]; in vivo) was “lower”, the “ΔLog10 CFU/ml at the MIC” value (M. tuberculosis H37Rv [2]) was 1.40 Log10 CFU/ml and the MIC (M. tuberculosis H37Rv [3]) was 19.6 µM (≈ 4.01 µg/mL). For the same compound, the “reported AUC” value [4] was 28000 ng·h/mL.
